Experimental findings from PMC7713294, “Multiplicity of carotene patterns derives from competition between phytoene desaturase diversification and biological environments” (Scientific Reports, 2020) are described below.

The term Kd denotes the concentration at which binding is half-saturated. A higher Kd goes with weaker binding.

What all share (assay): HPLC-UV time course, global Michaelis-Menten fit (COPASI)
Holding throughout (type): biochemical

The target in one experiment is T1, I3_Rc (Rhodobacter capsulatus, UniProt P17054).
T1 construct: gene crtI; full length, codon optimized, C-terminal His6, E. coli BL21(DE3), TALON purified with FAD; species only as initials
T1 sequence (P17054 whole entry): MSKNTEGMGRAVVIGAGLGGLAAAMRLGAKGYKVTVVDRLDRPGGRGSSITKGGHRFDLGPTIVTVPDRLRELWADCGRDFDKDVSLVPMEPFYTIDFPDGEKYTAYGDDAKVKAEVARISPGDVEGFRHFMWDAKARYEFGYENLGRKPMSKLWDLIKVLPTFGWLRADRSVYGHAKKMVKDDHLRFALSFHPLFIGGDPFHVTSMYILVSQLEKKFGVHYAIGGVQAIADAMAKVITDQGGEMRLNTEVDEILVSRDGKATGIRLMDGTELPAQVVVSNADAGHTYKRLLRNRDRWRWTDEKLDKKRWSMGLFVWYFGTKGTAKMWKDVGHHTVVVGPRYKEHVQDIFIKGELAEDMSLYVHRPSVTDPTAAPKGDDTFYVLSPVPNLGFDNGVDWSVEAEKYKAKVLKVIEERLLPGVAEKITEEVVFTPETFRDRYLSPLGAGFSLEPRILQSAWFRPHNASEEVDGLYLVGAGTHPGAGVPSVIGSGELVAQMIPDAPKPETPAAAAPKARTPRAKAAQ
The note with it: phytoene liposomes (soy lecithin), FAD, pH 8.0, 30 °C, Kd = kr/kf fitted with bounded rate constants.

In another experiment the target is T2, I4_Ma (Mycolicibacterium aurum, UniProt Q9K566).
T2 construct: gene crtI; full length, codon optimized, C-terminal His6, E. coli BL21(DE3), TALON purified with FAD; species only as initials (Ma), read as Mycobacterium aurum
T2 sequence (Q9K566 entry or part of it): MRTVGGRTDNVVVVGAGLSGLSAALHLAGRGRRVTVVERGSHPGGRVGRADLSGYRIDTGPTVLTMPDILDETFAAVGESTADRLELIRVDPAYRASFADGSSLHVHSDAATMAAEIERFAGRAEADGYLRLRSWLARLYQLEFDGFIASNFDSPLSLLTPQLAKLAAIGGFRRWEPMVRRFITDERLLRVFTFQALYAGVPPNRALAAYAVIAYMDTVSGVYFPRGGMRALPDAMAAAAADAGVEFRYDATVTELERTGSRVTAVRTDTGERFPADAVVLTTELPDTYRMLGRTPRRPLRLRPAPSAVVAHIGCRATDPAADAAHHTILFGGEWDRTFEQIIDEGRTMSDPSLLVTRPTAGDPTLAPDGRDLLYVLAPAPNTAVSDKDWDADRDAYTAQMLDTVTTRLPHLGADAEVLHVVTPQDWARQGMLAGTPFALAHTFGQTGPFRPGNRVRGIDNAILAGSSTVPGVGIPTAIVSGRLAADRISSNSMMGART
The note with it: phytoene liposomes (soy lecithin), FAD, pH 8.0, 30 °C, Kd = kr/kf fitted with bounded rate constants.

In experiment [1] the target is T3, I4_Bt (CrtI from Blakeslea trispora) (Blakeslea trispora, UniProt Q67GI0).
T3 construct: gene carB; full length, codon optimized, C-terminal His6, E. coli BL21(DE3), TALON purified with FAD
T3 sequence (Q67GI0 1-582): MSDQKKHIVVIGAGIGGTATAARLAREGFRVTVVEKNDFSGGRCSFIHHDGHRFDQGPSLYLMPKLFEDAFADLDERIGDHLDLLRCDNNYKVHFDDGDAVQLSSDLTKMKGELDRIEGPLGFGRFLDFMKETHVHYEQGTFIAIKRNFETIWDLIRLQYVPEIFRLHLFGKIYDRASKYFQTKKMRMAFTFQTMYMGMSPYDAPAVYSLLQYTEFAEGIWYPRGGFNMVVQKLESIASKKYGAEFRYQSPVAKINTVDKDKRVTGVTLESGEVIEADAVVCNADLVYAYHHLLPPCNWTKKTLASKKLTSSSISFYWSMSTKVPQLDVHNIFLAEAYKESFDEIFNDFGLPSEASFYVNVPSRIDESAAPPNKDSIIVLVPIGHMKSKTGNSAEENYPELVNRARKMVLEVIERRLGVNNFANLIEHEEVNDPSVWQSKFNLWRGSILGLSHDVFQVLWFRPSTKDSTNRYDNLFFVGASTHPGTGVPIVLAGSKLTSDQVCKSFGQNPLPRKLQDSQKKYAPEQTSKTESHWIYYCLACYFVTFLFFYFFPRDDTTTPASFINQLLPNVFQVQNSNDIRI
The note with it: phytoene liposomes (soy lecithin), FAD, pH 8.0, 30 °C; Kd = kr/kf fitted with bounded rate constants.

Regarding `CC(C)=CCC/C(C)=C/C=C/C(C)=C/C=C/C(C)=C/C=C/C=C(C)/C=C/C=C(\C)CC/C=C(\C)CCC=C(C)C` [neurosporene], the Kd on I3_Rc (lycopene production poorly fitted for I3_Rc) was 33000 nM; on I4_Ma (intermediate formed in situ from phytoene) it was 2100 nM; in experiment [1] it was 1600 nM.

Regarding `CC(C)=CCC/C(C)=C/CC/C(C)=C/CC/C(C)=C/C=C\C=C(/C)CC/C=C(\C)CC/C=C(\C)CCC=C(C)C` [phytoene], the Kd amounted to 1100 nM at I3_Rc, 13100 nM at I4_Ma and 7900 nM in experiment [1].

Turning to `CC(C)=CCC/C(C)=C/CC/C(C)=C/C=C/C(C)=C/C=C/C=C(\C)CC/C=C(\C)CC/C=C(\C)CCC=C(C)C` [phytofluene], the figures for the Kd (at I3_Rc; at I4_Ma; in experiment [1]) were 1000 nM, 1000 nM and 4700 nM, respectively.

As for `CC(C)=CCC/C(C)=C/CC/C(C)=C/C=C/C(C)=C/C=C/C=C(C)/C=C/C=C(\C)CC/C=C(\C)CCC=C(C)C` [ζ-carotene], the Kd at I3_Rc is 23000 nM; on I4_Ma, 2300 nM; in experiment [1], 2500 nM.
